{
  "source": "paper PMC4564290",
  "about": "(Journal of Molecular and Cellular Cardiology, 2015)",
  "key": {"[1]": {"target": "T1, wild-type (WT) hERG channels (Homo sapiens, UniProt Q12809)", "T1 construct": "expressed in transfected cells", "assay": "Whole-cell patch clamp of WT IhERG in HEK293 cells at 37 °C", "assay_type": "cell-based", "settings": "for Fraction of unblocked IhERG: 6–8 min; for Whole-cell IhERG current density: ~6 min, drug-free control 315.3 ± 56.7", "protocol": "(§1) HEK cells stably or transiently expressing hERG channel constructs were cultured as previously described [[34,37]]. The cells were plated in 40 mm petri dishes at least 48 h before transfection and incubated at 37 °C (5% CO2). Cells were transfected with Lipofectamine™ LTX (Invitrogen) following the manufacturer's instructions. The amount of transfected hERG construct DNA varied between 0.2 and 1.0 μg depending on the level of functional expression (assessed as current magnitudes) of each hERG channel construct. 0.5 to 1.0 μg of CD8 was co-transfected as a transfection-marker and successfully transfected cells were identified using Dynabeads® (Invitrogen). Cells were plated on small sterilized glass shards in 40 mm petri dishes and incubated at 37 °C (5% CO2) for at least 24 h before electrophysiological recording.\n(§2) Glass shards containing plated cells were placed in a recording chamber mounted on an inverted microscope (Nikon Diaphot, USA). The cells were continuously superfused with a pre-warmed (37 °C) standard Tyrode's solution containing (in mM) the following: 140 NaCl, 4 KCl, 2.5 CaCl2, 1 MgCl2, 10 Glucose, 5 HEPES (titrated to pH 7.4 with NaOH). […] Patch-pipettes were dialysed with an intracellular solution containing (in mM) the following: 130 KCl, 1 MgCl2, 5 EGTA, 5 MgATP, 10 HEPES (titrated to pH 7.2 with KOH). All recordings were made using an Axopatch 200B amplifier (Axon Instruments, now Molecular Devices) and a CV203BU head-stage. Pipette resistance compensation was between 70 and 80%. […] Data digitization rates were 10–25 kHz during all voltage protocols and an appropriate bandwidth of 2–10 kHz was set on the amplifier.\nFor statistical analysis, data were subject to the Kolmogorov–Smirnov normality test. Statistical comparisons were made using paired or unpaired two-tailed t tests, Wilcoxon matched pairs signed rank test, Mann–Whitney U test and one way (repeated measures, where indicated) or two way ANOVA, as appropriate.\nBlock of IhERG was assessed by calculating the reduction in drug of the outward ‘tail’ current at − 40 mV (assessed as the difference in magnitude between peak tail current and instantaneous current activated by the brief (50 ms) depolarization from − 80 to − 40 mV [[24,34,37]]). […] The fractional inhibition at each of four concentrations was calculated using Eq. (1) (supplementary information) and the mean values were plotted as shown in Fig. 1D and then fitted with a standard Hill equation (Eq. (2), supplementary information). […] The low expression and kinetics of some mutant channels included in this study requires that IhERG be studied as an inward current in high (94 mM) [K^+]o [[34,35,37]].\nWe tested the effect of two concentrations (10 and 100 μM) of each analogue applied from the cell exterior (superfusate) and interior (the latter through the patch-pipette). […] As soon as the whole-cell configuration was achieved the drug molecules were free to diffuse inside the cytoplasm, precluding cells acting as their own control."}, "[2]": {"target": "T2, F656A hERG (Homo sapiens, UniProt Q12809, F656A)", "T2 sequence (Q12809 whole entry F656A)": "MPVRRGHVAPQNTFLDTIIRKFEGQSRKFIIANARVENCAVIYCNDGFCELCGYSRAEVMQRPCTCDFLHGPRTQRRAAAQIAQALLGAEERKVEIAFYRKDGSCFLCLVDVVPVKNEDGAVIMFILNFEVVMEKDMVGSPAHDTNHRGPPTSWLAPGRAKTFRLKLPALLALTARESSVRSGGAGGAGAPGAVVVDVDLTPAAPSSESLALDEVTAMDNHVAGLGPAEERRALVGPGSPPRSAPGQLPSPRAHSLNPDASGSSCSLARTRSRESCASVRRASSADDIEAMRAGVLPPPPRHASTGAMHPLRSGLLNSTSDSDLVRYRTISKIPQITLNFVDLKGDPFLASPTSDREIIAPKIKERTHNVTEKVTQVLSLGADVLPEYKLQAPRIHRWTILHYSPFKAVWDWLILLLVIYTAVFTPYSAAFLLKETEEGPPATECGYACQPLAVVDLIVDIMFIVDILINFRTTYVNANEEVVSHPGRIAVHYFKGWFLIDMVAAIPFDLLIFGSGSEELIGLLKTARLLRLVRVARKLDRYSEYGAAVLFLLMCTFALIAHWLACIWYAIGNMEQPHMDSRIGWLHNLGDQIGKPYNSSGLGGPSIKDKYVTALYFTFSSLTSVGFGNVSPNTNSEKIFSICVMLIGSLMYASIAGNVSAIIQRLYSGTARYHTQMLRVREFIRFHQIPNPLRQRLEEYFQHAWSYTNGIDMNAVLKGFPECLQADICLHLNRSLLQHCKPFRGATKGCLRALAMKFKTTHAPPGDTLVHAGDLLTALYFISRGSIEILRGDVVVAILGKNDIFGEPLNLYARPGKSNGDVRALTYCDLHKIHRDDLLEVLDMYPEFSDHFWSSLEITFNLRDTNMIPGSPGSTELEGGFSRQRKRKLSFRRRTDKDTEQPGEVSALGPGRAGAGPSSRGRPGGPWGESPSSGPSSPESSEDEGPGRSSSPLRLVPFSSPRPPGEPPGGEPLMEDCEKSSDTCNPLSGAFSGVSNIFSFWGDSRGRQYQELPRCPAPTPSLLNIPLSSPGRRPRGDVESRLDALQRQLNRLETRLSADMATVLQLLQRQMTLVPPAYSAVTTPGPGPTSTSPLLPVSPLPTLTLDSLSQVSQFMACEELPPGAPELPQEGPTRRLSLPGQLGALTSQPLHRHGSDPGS", "assay": "Patch clamp of F656A S6 helix mutant IhERG", "assay_type": "cell-based", "design": "expressed in transfected cells; host or cells: HEK cells", "settings": "internal (patch-pipette) application 100 µM, tails at -120 mV, n=8 vs control n=12", "protocol": "as §1, §2\nTo investigate potential binding determinants in the pore region we studied alanine mutants of three residues (G648, Y652 and F656) located within the channel inner cavity on the S6 helix. […]"}, "[3]": {"test_system": "F656V hERG", "settings": "cited from earlier work"}, "[4]": {"test_system": "L-type calcium current", "settings": "cited from earlier work"}, "[5]": {"test_system": "feline ventricular E-4031 sensitive delayed rectifier current", "settings": "cited from earlier work"}, "[6]": {"test_system": "Kv1.5 V505 mutated to phenylalanine", "design": "method as in PMID 17872968", "settings": "cited from earlier work"}, "[7]": {"target": "N588K hERG (Homo sapiens, UniProt Q12809, N588K)", "sequence (Q12809 whole entry N588K)": "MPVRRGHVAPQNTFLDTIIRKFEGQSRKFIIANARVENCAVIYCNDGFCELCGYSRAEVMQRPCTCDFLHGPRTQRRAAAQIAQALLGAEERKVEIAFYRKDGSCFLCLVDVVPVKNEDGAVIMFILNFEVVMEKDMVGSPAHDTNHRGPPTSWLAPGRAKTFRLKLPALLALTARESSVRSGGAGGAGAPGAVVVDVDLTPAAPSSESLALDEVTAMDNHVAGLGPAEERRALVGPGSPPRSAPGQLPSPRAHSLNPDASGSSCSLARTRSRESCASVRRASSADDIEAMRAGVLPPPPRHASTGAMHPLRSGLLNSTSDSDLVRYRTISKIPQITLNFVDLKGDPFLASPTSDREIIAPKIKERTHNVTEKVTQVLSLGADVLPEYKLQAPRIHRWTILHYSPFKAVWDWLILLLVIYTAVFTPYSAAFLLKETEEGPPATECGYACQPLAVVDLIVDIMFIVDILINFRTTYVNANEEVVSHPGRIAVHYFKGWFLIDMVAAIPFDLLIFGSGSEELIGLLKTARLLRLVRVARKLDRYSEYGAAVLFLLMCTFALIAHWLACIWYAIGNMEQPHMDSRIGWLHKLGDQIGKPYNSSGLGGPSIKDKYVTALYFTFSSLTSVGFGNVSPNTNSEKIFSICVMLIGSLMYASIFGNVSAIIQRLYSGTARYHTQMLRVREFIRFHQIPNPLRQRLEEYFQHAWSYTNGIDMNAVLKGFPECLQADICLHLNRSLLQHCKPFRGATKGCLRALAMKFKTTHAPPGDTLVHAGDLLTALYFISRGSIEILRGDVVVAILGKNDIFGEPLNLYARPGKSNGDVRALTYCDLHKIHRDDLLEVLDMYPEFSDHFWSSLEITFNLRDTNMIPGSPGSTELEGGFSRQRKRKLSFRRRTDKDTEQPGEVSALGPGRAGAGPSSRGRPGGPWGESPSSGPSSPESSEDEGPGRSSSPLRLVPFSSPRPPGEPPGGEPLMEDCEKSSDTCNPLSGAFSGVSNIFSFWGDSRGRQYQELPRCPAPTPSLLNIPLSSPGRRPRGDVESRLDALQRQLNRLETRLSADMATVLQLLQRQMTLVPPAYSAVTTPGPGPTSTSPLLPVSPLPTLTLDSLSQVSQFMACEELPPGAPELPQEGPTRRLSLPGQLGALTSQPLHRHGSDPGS", "design": "expressed in transfected cells; host or cells: HEK cells", "settings": "IC50 mutant/IC50 WT; mammalian expression; ref 15 of supplement; cited from earlier work"}, "[8]": {"settings": "cited from earlier work"}, "[9]": {"target": "T2, F656A hERG", "settings": "300 μM (profound blocking concentration for WT IhERG), Xenopus oocyte expression; cited from earlier work"}, "[10]": {"target": "Y652A hERG (Homo sapiens, UniProt Q12809, Y652A)", "sequence (Q12809 whole entry Y652A)": "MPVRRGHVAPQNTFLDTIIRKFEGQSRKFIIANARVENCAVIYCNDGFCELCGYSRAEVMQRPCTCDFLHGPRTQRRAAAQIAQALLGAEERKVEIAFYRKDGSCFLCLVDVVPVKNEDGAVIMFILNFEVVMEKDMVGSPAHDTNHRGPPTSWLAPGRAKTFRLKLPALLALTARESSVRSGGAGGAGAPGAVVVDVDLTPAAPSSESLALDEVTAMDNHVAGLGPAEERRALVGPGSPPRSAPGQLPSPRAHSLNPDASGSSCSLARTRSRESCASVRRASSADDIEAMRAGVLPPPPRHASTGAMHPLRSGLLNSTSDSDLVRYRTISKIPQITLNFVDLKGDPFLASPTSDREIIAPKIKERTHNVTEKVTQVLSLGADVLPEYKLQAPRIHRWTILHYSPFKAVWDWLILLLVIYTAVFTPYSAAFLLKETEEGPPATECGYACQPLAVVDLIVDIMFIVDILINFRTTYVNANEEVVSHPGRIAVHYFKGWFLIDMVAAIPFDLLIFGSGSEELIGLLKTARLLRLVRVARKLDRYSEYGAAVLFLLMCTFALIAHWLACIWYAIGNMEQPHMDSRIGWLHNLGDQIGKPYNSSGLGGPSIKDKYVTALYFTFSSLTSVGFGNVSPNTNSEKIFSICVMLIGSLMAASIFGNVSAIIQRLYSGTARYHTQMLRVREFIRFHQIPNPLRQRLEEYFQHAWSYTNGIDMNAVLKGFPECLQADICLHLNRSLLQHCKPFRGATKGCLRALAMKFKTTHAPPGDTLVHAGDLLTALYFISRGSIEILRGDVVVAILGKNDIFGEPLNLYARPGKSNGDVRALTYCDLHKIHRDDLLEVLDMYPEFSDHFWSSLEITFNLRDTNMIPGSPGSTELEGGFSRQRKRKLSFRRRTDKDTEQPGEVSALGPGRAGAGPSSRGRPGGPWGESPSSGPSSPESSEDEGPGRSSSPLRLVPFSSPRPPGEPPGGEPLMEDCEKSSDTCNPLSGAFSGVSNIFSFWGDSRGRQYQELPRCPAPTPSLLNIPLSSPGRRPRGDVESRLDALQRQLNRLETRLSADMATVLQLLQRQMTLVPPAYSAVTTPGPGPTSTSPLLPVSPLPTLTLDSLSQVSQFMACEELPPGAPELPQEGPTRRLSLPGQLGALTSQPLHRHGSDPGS", "design": "expressed in transfected cells", "settings": "300 μM (profound blocking concentration for WT IhERG), Xenopus oocyte expression; cited from earlier work"}, "[11]": {"settings": "external application (superfusate) 10 μM"}, "[12]": {"settings": "external application (superfusate) 100 μM"}, "[13]": {"settings": "internal application via patch-pipette 10 μM"}, "[14]": {"settings": "internal application via patch-pipette 100 μM"}},
  "note": "“Also recorded” adds a separate entry of the source.",
  "data": [
    {"smiles": "C[N+]1(C)CCCCC1CNC(=O)c1cc(OCC(F)(F)F)ccc1OCC(F)(F)F", "note": "(centres unmarked) [QX-Flec]", "values": [
      {"measurement": "Fraction of unblocked IhERG", "setting": "[1]; [11]", "value": "72.2 ± 4.6", "unit": "%"},
      {"measurement": "Fraction of unblocked IhERG", "setting": "[1]; [12]", "value": "54.6 ± 3.5", "unit": "%"},
      {"measurement": "Whole-cell IhERG current density", "setting": "[1]; [13]", "value": "55.3 ± 5.9", "unit": "pA/pF"},
      {"measurement": "Whole-cell IhERG current density", "setting": "[1]; [14]", "value": "9.3 ± 1.9", "unit": "pA/pF"},
      {"measurement": "Effect on density of inward F656A IhERG tails vs drug-free control", "setting": "[2]", "value": "ineffective; also recorded: no significant difference; also recorded: little inhibition"}
    ]},
    {"smiles": "C=C[C@H]1C[N@@]2CC[C@H]1C[C@@H]2[C@@H](O)c1ccnc2ccc(OC)cc12", "note": "[Quinidine]", "values": [
      {"measurement": "Increase in IhERG IC50 with F656V", "setting": "[3]", "value": "~ 27 fold"}
    ]},
    {"smiles": "O=C(NCC1CCCCN1)c1cc(OCC(F)(F)F)ccc1OCC(F)(F)F", "note": "(centres unmarked) [flecainide, Flecainide acetate]", "values": [
      {"measurement": "IC50", "setting": "[4]", "value": "~20", "unit": "µM"},
      {"measurement": "IC50", "setting": "[5]", "value": 2.1, "unit": "µM"},
      {"measurement": "Increase in blocking potency on mutating V505 to phenylalanine", "setting": "[6]", "value": 9, "unit": "fold"}
    ]},
    {"smiles": "CC(C)NC[C@@H](O)c1ccc(NS(C)(=O)=O)cc1", "note": "[D-Sotalol]", "values": [
      {"measurement": "Fold-change in IC50 N588K compared to WT IhERG", "setting": "[7]", "value": 20, "unit": "fold"}
    ]},
    {"smiles": "O=C(NCCN1CCOCC1)c1cc(OCC(F)(F)F)ccc1OCC(F)(F)F", "note": "[NU-Flec]", "values": [
      {"measurement": "Fraction of unblocked IhERG", "setting": "[1]; [11]", "value": "75.8 ± 4.4", "unit": "%"},
      {"measurement": "Fraction of unblocked IhERG", "setting": "[1]; [12]", "value": "50.2 ± 4.3", "unit": "%"},
      {"measurement": "Whole-cell IhERG current density", "setting": "[1]; [13]", "value": "283.2 ± 63.4", "unit": "pA/pF"},
      {"measurement": "Whole-cell IhERG current density", "setting": "[1]; [14]", "value": "359.8 ± 56.1", "unit": "pA/pF"},
      {"measurement": "pKa", "setting": "[8]", "value": 6.3}
    ]},
    {"smiles": "CC[C@H]1[C@@H]2C[C@H]3[C@@H]4N(C)c5ccccc5[C@]45C[C@@H]([C@H]2[C@H]5O)N3[C@@H]1O", "note": "[ajmaline]", "values": [
      {"measurement": "Inhibitory action on F656A IhERG", "setting": "[9]", "value": "ineffective"},
      {"measurement": "Inhibitory action on Y652A IhERG", "setting": "[10]", "value": "ineffective"}
    ]}
  ]
}
